Source: patent US20200333324A1, “METHOD OF PREDICTING CLINICAL OUTCOME OF ANTICANCER AGENTS” (MITRA RXDX, INC., priority 2017, published 2020)

How the values were obtained:
Type in all cases: cell-based, human
HNSCC tumor tissue [1] = assay: Granzyme B and Perforin secretion assays, HNSCC tumor sections in tumor microenvironment platform; settings: 48 hours
Experimental: FIGS. 9A and 9B show quantification of results for Granzyme B and Perforin secretion assays for HNSCC tumor tissue cultured in the tumor microenvironment platform treated with Pembrolizumab, Nivolumab, or IgG control for 24 or 48 hours.
HNSCC tumor sections from the same patient cultured for 24 or 48 hours in the tumor microenvironment platform with Pembrolizumab, Nivolumab, or IgG as control were assayed for Granzyme B and Perforin secretion. Results are shown in FIG. 9A for the tumor microenvironment platform with tumor tissue from a predicted responder and FIG. 9B for the tumor microenvironment platform with tumor tissue from a predicted non-responder. After treatment with Pembrolizumab for 48 hours, there was an increase in both Granzyme B and Perforin secretion in the tumor microenvironment platform with tissue from the predicted responder compared to treatment with the control IgG. By contrast, at 48 hours in the tumor microenvironment platform with tissue from the predicted non-responder there was no increase in Granzyme B or Perforin secretion for treatment with either Pembrolizumab or Nivolumab.

HNSCC tumor tissue [2] = assay: IHC for CD8, PD-L1, PD-1 and FOXP3 positive cells in tumor microenvironment platform; settings: T3; for number of PD-1^+ cells in the tumor microbed: vs IgG control
Experimental: (§1) The effect of Pembrolizumab and Nivolumab on CD8^+ T cell tumor infiltration was then evaluated. Tumor sections from the same patient cultured for 72 hours in the tumor microenvironment platform were treated with Pembrolizumab, Nivolumab, or IgG as control and stained for H&E, Ki67, Caspase 3, and CD8 at day 3 in culture (T3). Baseline staining was determined at TO. […] To further elucidate the effects of the anti-PD-1 antibodies, FACS analysis was performed on tumor tissue from patient 2941 and patient 2942 treated with either Pembrolizumab, Nivolumab, or IgG control. […] By contrast, there was no effect of either Pembrolizumab or Nivolumab on CD8^+ T cell infiltration for patient 2942, further highlighting the differential response between individuals to PD-1 blockade. CD8^+ T cell infiltration was evaluated in the tumor microenvironment platform with tumor tissue from the same patient, and comparisons for control vs Nivo, control vs Pembro, Nivo vs Pembro, and control vs Nivo vs Pembro for multiple patients are shown in FIG. 6 (each line represents results from the tumor microenvironment platform cultured with tumor tissue from a single individual).
The effect of Pembrolizumab and Nivolumab on the expression of immunoregulatory molecules, including PD-1 and FOXP3, in the tumor microenvironment platform tumor microbed was evaluated. Tumor sections from the same patient cultured for 3 days (72 hours) in the tumor microenvironment platform were treated with Pembrolizumab, Nivolumab, or IgG control and stained for CD8, FOXP3, and PD-1 at day 3 in culture (T3). Baseline staining was determined at TO. Results are shown in FIG. 7A for tumor sections from a predicted responder to Pembrolizumab or Nivolumab and FIG. 7B for a predicted non-responder to Pembrolizumab or Nivolumab, as characterized by M-score. There was in increase in the number of PD-1^+ cells in the tumor microbed for both Pembrolizumab and Nivolumab, which was to a greater degree in the case of Nivolumab, when compared to IgG control in the responder (FIG. 7A). There was no change for either Pembrolizumab and Nivolumab in the non-responder (FIG. 7B). The numbers of PD-L1^+ tumor cells, PD-1^+ T cells, FOXP3^+ T-regulatory cells, and CD8^+ T cells were evaluated using the tumor microenvironment platform with tumor tissue from the same patient in Nivolumab, Pembrolizumab, and control conditions, and are summarized in Table 3. Comparisons for control vs Nivo, control vs Pembro, Nivo vs Pembro, and control vs Nivo vs Pembro for multiple patients are shown in FIG. 8 (each line represents results from the tumor microenvironment platform cultured with tumor tissue from a single individual).

HNSCC tumor tissue [3] = assay: FACS analysis for CD3 and CD8 (CD8+ T cell infiltration) in tumor microenvironment platform; settings: vs IgG control
Experimental: as §1

PBNCs = assay: FACS analysis for CD25, CD127 and FOXP3 expression, PBNCs
Experimental: The effect of treatment with Nivolumab and Pembrolizumab on CD25, CD127, and FOXP3 expression was then evaluated. Tumor sections or PBNCs from the same patient cultured for 3 days in the tumor microenvironment platform were treated with Pembrolizumab, Nivolumab, or IgG control for one day followed by FACS analysis for expression of CD25, CD127, and FOXP3.

[4] = predicted responder, compared to control IgG

Pembrolizumab
Granzyme B secretion (HNSCC tumor tissue [1]; predicted non-responder): no increase
Perforin secretion (HNSCC tumor tissue [1]; predicted non-responder): no increase
Granzyme B secretion (HNSCC tumor tissue [1]; [4]): increase
Perforin secretion (HNSCC tumor tissue [1]; [4]): increase
# cells/field PD-1^+ (HNSCC tumor tissue [2]; Patient ID 2916, control 0): 0 cells/field
# cells/field PD-L1^+ (HNSCC tumor tissue [2]; Patient ID 2916, control 1): 2 cells/field
# cells/field FOXP3^+ (HNSCC tumor tissue [2]; Patient ID 2916, control 3): 2 cells/field
# cells/field CD8^+ (HNSCC tumor tissue [2]; Patient ID 2916, control 20): 18 cells/field
# cells/field PD-1^+ (HNSCC tumor tissue [2]; Patient ID 2918, control 2): 0 cells/field
# cells/field FOXP3^+ (HNSCC tumor tissue [2]; Patient ID 2918, control 3): 3 cells/field
# cells/field CD8^+ (HNSCC tumor tissue [2]; Patient ID 2918, control 10): 14 cells/field
# cells/field PD-L1^+ (HNSCC tumor tissue [2]; Patient ID 2918, control 10): 10 cells/field
# cells/field PD-1^+ (HNSCC tumor tissue [2]; Patient ID 2926, control 0): 0 cells/field
# cells/field PD-L1^+ (HNSCC tumor tissue [2]; Patient ID 2926, control 3): 1 cells/field
# cells/field FOXP3^+ (HNSCC tumor tissue [2]; Patient ID 2926, control 4): 10 cells/field
# cells/field CD8^+ (HNSCC tumor tissue [2]; Patient ID 2926, control 25): 5 cells/field
# cells/field PD-1^+ (HNSCC tumor tissue [2]; Patient ID 2928, control 0): 0 cells/field
# cells/field PD-L1^+ (HNSCC tumor tissue [2]; Patient ID 2928, control 0): 1 cells/field
# cells/field CD8^+ (HNSCC tumor tissue [2]; Patient ID 2928, control 4): 1 cells/field
# cells/field FOXP3^+ (HNSCC tumor tissue [2]; Patient ID 2928, control 4): 1 cells/field
# cells/field CD8^+ (HNSCC tumor tissue [2]; Patient ID 2939, control 0): 5 cells/field
# cells/field PD-1^+ (HNSCC tumor tissue [2]; Patient ID 2939, control 0): 0 cells/field
# cells/field FOXP3^+ (HNSCC tumor tissue [2]; Patient ID 2939, control 1): 1 cells/field
# cells/field PD-L1^+ (HNSCC tumor tissue [2]; Patient ID 2939, control 10): 15 cells/field
# cells/field PD-1^+ (HNSCC tumor tissue [2]; Patient ID 2941, control 0): 1 cells/field
# cells/field FOXP3^+ (HNSCC tumor tissue [2]; Patient ID 2941, control 3): 4 cells/field
# cells/field PD-L1^+ (HNSCC tumor tissue [2]; Patient ID 2941, control 3): 6 cells/field
# cells/field CD8^+ (HNSCC tumor tissue [2]; Patient ID 2941, control 5): 7 cells/field
# cells/field PD-1^+ (HNSCC tumor tissue [2]; Patient ID 2942, control 0): 0 cells/field
# cells/field PD-L1^+ (HNSCC tumor tissue [2]; Patient ID 2942, control 0): 0 cells/field
# cells/field CD8^+ (HNSCC tumor tissue [2]; Patient ID 2942, control 3): 2 cells/field
# cells/field FOXP3^+ (HNSCC tumor tissue [2]; Patient ID 2942, control 3): 2 cells/field
# cells/field FOXP3^+ (HNSCC tumor tissue [2]; Patient ID 2948, control 1): 3 cells/field
# cells/field PD-1^+ (HNSCC tumor tissue [2]; Patient ID 2948, control 1): 0 cells/field
# cells/field PD-L1^+ (HNSCC tumor tissue [2]; Patient ID 2948, control 10): 1 cells/field
# cells/field CD8^+ (HNSCC tumor tissue [2]; Patient ID 2948, control 20): 25 cells/field
# cells/field PD-1^+ (HNSCC tumor tissue [2]; Patient ID 2949, control 1): 6 cells/field
# cells/field FOXP3^+ (HNSCC tumor tissue [2]; Patient ID 2949, control 5): 3 cells/field
# cells/field PD-L1^+ (HNSCC tumor tissue [2]; Patient ID 2949, control 20): 28 cells/field
# cells/field CD8^+ (HNSCC tumor tissue [2]; Patient ID 2949, control 50): 40 cells/field
# cells/field PD-1^+ (HNSCC tumor tissue [2]; Patient ID 2956, control 0): 0 cells/field
# cells/field CD8^+ (HNSCC tumor tissue [2]; Patient ID 2956, control 1): 1 cells/field
# cells/field PD-L1^+ (HNSCC tumor tissue [2]; Patient ID 2956, control 2): 0 cells/field
# cells/field FOXP3^+ (HNSCC tumor tissue [2]; Patient ID 2956, control 8): 1 cells/field
# cells/field PD-1^+ (HNSCC tumor tissue [2]; Patient ID 2963, control 0): 0 cells/field
# cells/field CD8^+ (HNSCC tumor tissue [2]; Patient ID 2963, control 6): 2 cells/field
# cells/field FOXP3^+ (HNSCC tumor tissue [2]; Patient ID 2963, control 10): 2 cells/field
# cells/field PD-L1^+ (HNSCC tumor tissue [2]; Patient ID 2963, control 12): 10 cells/field
# cells/field PD-1^+ (HNSCC tumor tissue [2]; Patient ID 2978, control 0): 0 cells/field
# cells/field FOXP3^+ (HNSCC tumor tissue [2]; Patient ID 2978, control 1): 2 cells/field
# cells/field PD-L1^+ (HNSCC tumor tissue [2]; Patient ID 2978, control 1): 1 cells/field
# cells/field CD8^+ (HNSCC tumor tissue [2]; Patient ID 2978, control 12): 22 cells/field
# cells/field PD-1^+ (HNSCC tumor tissue [2]; Patient ID 2979, control 0): 0 cells/field
# cells/field FOXP3^+ (HNSCC tumor tissue [2]; Patient ID 2979, control 2): 3 cells/field
# cells/field PD-L1^+ (HNSCC tumor tissue [2]; Patient ID 2979, control 5): 8 cells/field
# cells/field CD8^+ (HNSCC tumor tissue [2]; Patient ID 2979, control 25): 10 cells/field
# cells/field PD-1^+ (HNSCC tumor tissue [2]; Patient ID 2980, control 0): 0 cells/field
# cells/field FOXP3^+ (HNSCC tumor tissue [2]; Patient ID 2980, control 1): 2 cells/field
# cells/field PD-L1^+ (HNSCC tumor tissue [2]; Patient ID 2980, control 8): 2 cells/field
# cells/field CD8^+ (HNSCC tumor tissue [2]; Patient ID 2980, control 30): 8 cells/field
# cells/field FOXP3^+ (HNSCC tumor tissue [2]; Patient ID 2981, control 0): 1 cells/field
# cells/field PD-1^+ (HNSCC tumor tissue [2]; Patient ID 2981, control 0): 0 cells/field
# cells/field PD-L1^+ (HNSCC tumor tissue [2]; Patient ID 2981, control 0): 0 cells/field
# cells/field CD8^+ (HNSCC tumor tissue [2]; Patient ID 2981, control 1): 12 cells/field
number of PD-1^+ cells in the tumor microbed (HNSCC tumor tissue [2]; predicted non-responder): no change
number of PD-1^+ cells in the tumor microbed (HNSCC tumor tissue [2]; predicted responder, to a greater degree in the case of Nivolumab): increase
CD8^+ T cell infiltration (FACS) (HNSCC tumor tissue [3]; patient 2941): but not Pembrolizumab
CD8^+ T cell infiltration (FACS) (HNSCC tumor tissue [3]; patient 2942): no effect
CD25^+/FOXP3^− PBMCs (% total cells) (PBNCs; Non-Responder, control 3.67): 2.8 % total cells
CD25^+/CD127^+ PBMCs (% total cells) (PBNCs; Non-Responder, control 14.6): 25.6 % total cells
CD25^+/CD127^− PBMCs (% total cells) (PBNCs; Non-Responder, control 15.1): 7.71 % total cells
CD25^−/FOXP3^− PBMCs (% total cells) (PBNCs; Non-Responder, control 18.2): 10.9 % total cells
CD25^+/FOXP3^+ PBMCs (% total cells) (PBNCs; Non-Responder, control 22.1): 29.1 % total cells
CD25^−/CD127^+ PBMCs (% total cells) (PBNCs; Non-Responder, control 26.2): 45.3 % total cells
CD25^−/CD127^− PBMCs (% total cells) (PBNCs; Non-Responder, control 44.1): 21.4 % total cells
CD25^− FOXP3^+ PBMCs (% total cells) (PBNCs; Non-Responder, control 56.0): 57.2 % total cells
CD25^+/FOXP3^− PBMCs (% total cells) (PBNCs; Responder, control 3.04): 3.94 % total cells
CD25^+/CD127^− PBMCs (% total cells) (PBNCs; Responder, control 11.7): 7.77 % total cells
CD25^+/CD127^+ PBMCs (% total cells) (PBNCs; Responder, control 16.8): 20.4 % total cells
CD25^+/FOXP3^+ PBMCs (% total cells) (PBNCs; Responder, control 21.7): 22.1 % total cells
CD25^−/FOXP3^− PBMCs (% total cells) (PBNCs; Responder, control 23.2): 20.0 % total cells
CD25^−/CD127^+ PBMCs (% total cells) (PBNCs; Responder, control 24.8): 46.4 % total cells
CD25^−/CD127^− PBMCs (% total cells) (PBNCs; Responder, control 46.6): 25.4 % total cells
CD25^− FOXP3^+ PBMCs (% total cells) (PBNCs; Responder, control 52.1): 54.0 % total cells
